Assay results: ChEMBL document CHEMBL1201862, “PubChem BioAssay data set” (2004)
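1) Cells in 96-well plates. 2) Compound, 48 h, 5 concentrations. 3) Linear interpolation between surrounding doses. 4) Unreached endpoint = highest concentration. The concentration for 50% growth inhibition is given as GI50.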 Calls of active or inactive are those of the source. Cut-off read from the data, not from the text of the source: active = GI50 up to about 1.1 µM and inactive = higher.

Columns and labels:
Test in all cases: DTP human tumour cell line panel, 48 h
[1] = system: U-251
[2] = system: OVCAR-8
[3] = system: HCC 2998
[4] = system: Hs-578T
[5] = system: RPMI-8226
[6] = system: SF-539
[7] = system: UO-31
[8] = system: RXF 393
[9] = system: Malme-3M
[10] = system: HL-60
[11] = system: MDA-MB-231
[12] = system: LOX IMVI
[13] = system: 786-0
[14] = system: MDA-MB-435
[15] = system: IGROV-1
[16] = system: SW-620
[17] = system: NCI-H460
[18] = system: SNB-75
[19] = system: OVCAR-4
[20] = system: CCRF-CEM

Measured: GI50

CC1(C)CC2(C)OC(=N)C1(C#N)C2(C#N)C#N (centres undefined)
inactive: [1] 13.6 µM | [2] 18.2 µM | [3] 12.1 µM | [4] 13 µM | [5] 5.65 µM | [6] 12.1 µM | [7] 4.26 µM | [8] 11.6 µM | [9] 12.3 µM | [10] 2.98 µM | [11] 8.83 µM | [12] 1.68 µM | [13] 2.63 µM | [14] 11.9 µM | [15] 15 µM | [16] 3.1 µM

CC1OC(O[C@H]2C3C=CO[C@@H](OC4OC(CO)C(O)C(O)C4O)C3[C@@]3(COC(=O)/C=C/c4ccccc4)O[C@@H]23)C(O)C(O)C1O (some centres undefined)
inactive: [1] > 100 µM | [2] > 100 µM | [17] > 100 µM | [3] > 100 µM | [4] > 100 µM | [5] > 100 µM | [7] > 100 µM | [8] > 100 µM | [9] > 100 µM | [10] > 100 µM | [18] > 100 µM | [11] > 100 µM | [12] > 100 µM | [13] > 100 µM | [19] > 100 µM | [20] > 100 µM | [14] > 100 µM | [15] > 100 µM | [16] > 100 µM

O=C(n1[nH]c(=O)n(-c2ccc([N+](=O)[O-])cc2)c1=O)C(Cl)(Cl)Cl
inactive: [1] > 75 µM | [2] > 75 µM | [17] > 75 µM | [3] > 75 µM | [4] > 75 µM | [5] > 75 µM | [7] > 75 µM | [8] > 75 µM | [9] > 75 µM | [10] > 75 µM | [18] > 75 µM | [11] > 75 µM | [12] > 75 µM | [13] > 75 µM | [19] > 75 µM | [14] > 75 µM | [15] > 75 µM | [16] > 75 µM

CC1=NN(C2=NS(=O)(=O)c3ccccc3N2C)C(=O)C1
inactive: [1] > 100 µM | [2] > 100 µM | [17] > 100 µM | [3] > 100 µM | [4] > 100 µM | [6] > 100 µM | [7] > 100 µM | [8] > 100 µM | [10] > 100 µM | [11] > 100 µM | [12] > 100 µM | [13] > 100 µM | [19] > 100 µM | [20] > 100 µM | [14] > 100 µM | [15] > 100 µM | [16] > 100 µM

COc1ccc(-c2ccc(C(=O)C=P(c3ccccc3)(c3ccccc3)c3ccccc3)cc2)cc1
inactive: [1] 13 µM | [17] 8.13 µM | [3] 1.79 µM | [4] 23 µM | [5] 2.12 µM | [6] 17.7 µM | [7] 3.13 µM | [8] 13.2 µM | [9] 18.7 µM | [10] 3.94 µM | [11] 15.9 µM | [12] 13.2 µM | [13] 16.7 µM | [19] 7.96 µM | [20] 5.52 µM | [14] 12.2 µM | [16] 14.6 µM

O=C(O)c1nc2ccccc2nc1NCc1ccc(F)cc1
inactive: [1] 52.7 µM | [2] 53.2 µM | [17] 60.7 µM | [3] 99.1 µM | [4] 61.8 µM | [5] 60.4 µM | [6] > 100 µM | [7] 45.3 µM | [8] > 100 µM | [10] 45.8 µM | [18] > 100 µM | [11] 68.7 µM | [12] 36.8 µM | [13] 42.8 µM | [20] 50.5 µM | [14] > 100 µM | [15] 46.6 µM | [16] 63.8 µM

O=c1oc2ccccc2c2c1Sc1ccccc1N2
inactive: [1] 58.3 µM | [2] > 100 µM | [17] 92.9 µM | [3] 53 µM | [4] > 100 µM | [5] 47.2 µM | [6] > 100 µM | [7] > 100 µM | [8] 64.9 µM | [10] > 100 µM | [11] 85.5 µM | [12] > 100 µM | [13] > 100 µM | [19] 22.8 µM | [20] 75.9 µM | [14] 96.4 µM | [15] > 100 µM | [16] > 100 µM

Cc1nn(C2OC(CO)C(O)C(F)C2O)c(=O)[nH]c1=O (centres undefined)
inactive: [1] > 100 µM | [2] > 100 µM | [17] > 100 µM | [3] > 100 µM | [4] > 100 µM | [5] > 100 µM | [6] > 100 µM | [7] > 100 µM | [9] > 100 µM | [10] > 100 µM | [11] > 100 µM | [12] > 100 µM | [13] > 100 µM | [19] > 100 µM | [20] > 100 µM | [14] > 100 µM | [16] > 100 µM

COc1ccc(/C=C2\CCC(CNc3ccc(OC)cc3)C2=O)cc1 (centres undefined)
inactive: [1] 18.7 µM | [2] 17.7 µM | [17] 47.8 µM | [3] 21.2 µM | [4] 35.4 µM | [6] 20.4 µM | [7] 17.9 µM | [8] 16.2 µM | [9] 22.6 µM | [10] 3.09 µM | [18] 31.1 µM | [11] 17.8 µM | [12] 12.9 µM | [13] 9.51 µM | [19] 23.4 µM | [20] 3.37 µM | [14] 20.8 µM | [15] 13.9 µM | [16] 3.5 µM

CNc1ccc([S+]([O-])Nc2ccccc2)cc1 (centres undefined)
inactive: [1] 36.2 µM | [2] 56.2 µM | [17] 55.8 µM | [3] 23.1 µM | [4] 37.7 µM | [5] 39.8 µM | [6] > 100 µM | [7] 23.9 µM | [9] 53.2 µM | [10] 26.1 µM | [11] 46.1 µM | [12] 41.9 µM | [13] 53.8 µM | [19] 94.2 µM | [20] > 100 µM | [14] 34 µM | [15] 41.6 µM | [16] 70.8 µM

O=C1/C(=C/Cc2ccco2)N=C(c2ccccc2)N1c1nc2c(Cl)cc(Cl)cc2s1
inactive: [1] 27 µM | [2] 36 µM | [17] 32.2 µM | [3] 31.7 µM | [4] 23.6 µM | [5] 12.4 µM | [6] 23 µM | [7] 26.2 µM | [8] 13.4 µM | [10] 20.9 µM | [11] 27.2 µM | [12] 25.4 µM | [13] 44.8 µM | [19] 21.3 µM | [20] 17.9 µM | [14] 20.5 µM | [15] 29.9 µM | [16] 39 µM

OC1CN2Cc3cc4c(cc3[C@]13C=C[C@@H](O)CC23)OCO4 (some centres undefined)
inactive: [1] 30.8 µM | [2] 29.2 µM | [17] 14.4 µM | [4] 57.5 µM | [5] 32.6 µM | [6] 45.6 µM | [7] 33.6 µM | [8] 15.7 µM | [9] 35.8 µM | [10] 21.2 µM | [11] 59.3 µM | [12] 30 µM | [13] 20.9 µM | [19] 19.8 µM | [20] 8.57 µM | [14] 20 µM | [15] 18.3 µM | [16] 28 µM

CC(C)(C)CN1[C@@H]2CCCC[C@H]2N(CC(C)(C)C)P1(=O)C(O)/C=C/c1ccccc1 (some centres undefined)
inactive: [1] 41.4 µM | [2] 62.5 µM | [17] 26.2 µM | [3] 28.5 µM | [4] 29.9 µM | [5] 19.5 µM | [7] 29.5 µM | [8] 30.3 µM | [9] 38.5 µM | [10] 32 µM | [18] 21.3 µM | [11] 45.9 µM | [12] 18.7 µM | [13] 39.4 µM | [19] 45.4 µM | [20] 34.3 µM | [14] 42.1 µM | [15] 25.6 µM | [16] 34.2 µM

CCOC(=O)C(CS)NC(=O)CCCCCCCC(=O)NC(CS)C(=O)OCC (centres undefined)
inactive: [1] > 100 µM | [2] > 100 µM | [17] > 100 µM | [3] > 100 µM | [4] > 100 µM | [5] > 100 µM | [6] > 100 µM | [7] > 100 µM | [9] 92 µM | [10] 25.8 µM | [18] > 100 µM | [11] > 100 µM | [12] 86.9 µM | [13] > 100 µM | [19] > 100 µM | [20] 21.2 µM | [14] > 100 µM | [15] > 100 µM | [16] > 100 µM

NCCCCN(CCCN)C(=O)OCc1ccccc1
inactive: [1] > 100 µM | [2] > 100 µM | [17] > 100 µM | [3] > 100 µM | [4] > 100 µM | [5] > 100 µM | [6] > 100 µM | [7] > 100 µM | [8] > 100 µM | [10] > 100 µM | [18] > 100 µM | [11] > 100 µM | [13] > 100 µM | [19] > 100 µM | [20] > 100 µM | [14] > 100 µM | [15] > 100 µM | [16] > 100 µM
